Test results from PubChem BioAssay (NCI).
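96-well plates; 48 h exposure; 5 concentrations. Endpoints by linear interpolation between flanking doses. Not reached: highest tested concentration assigned. TGI denotes the concentration required for complete inhibition of growth.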

Assays:
Experiment in all cases: NCI anticancer screen, dose series, 48 h
T-47D breast = tested on: T-47D breast
IGROV1 ovarian = tested on: IGROV1 ovarian
MDA-MB-435 = tested on: MDA-MB-435
SNB-19 CNS = tested on: SNB-19 CNS
SF-539 CNS = tested on: SF-539 CNS
CAKI-1 renal = tested on: CAKI-1 renal
SK-MEL-2 melanoma = tested on: SK-MEL-2 melanoma
NCI-H226 lung = tested on: NCI-H226 lung
HOP-62 NSCLC = tested on: HOP-62 NSCLC
TK-10 renal = tested on: TK-10 renal
DU-145 prostate = tested on: DU-145 prostate
SF-295 CNS = tested on: SF-295 CNS
MOLT-4 leukemia = tested on: MOLT-4 leukemia
SR leukemia = tested on: SR leukemia
HCT-15 colon = tested on: HCT-15 colon
A498 renal = tested on: A498 renal
SN12C renal = tested on: SN12C renal
A549 NSCLC = tested on: A549 NSCLC
SW-620 colon = tested on: SW-620 colon
LOX IMVI melanoma = tested on: LOX IMVI melanoma
HOP-92 NSCLC = tested on: HOP-92 NSCLC
ACHN renal = tested on: ACHN renal
SK-MEL-5 melanoma = tested on: SK-MEL-5 melanoma
KM12 colon = tested on: KM12 colon
U251 CNS = tested on: U251 CNS
NCI-H23 lung = tested on: NCI-H23 lung
786-0 renal = tested on: 786-0 renal
HCT-116 colon = tested on: HCT-116 colon
NCI-H460 lung = tested on: NCI-H460 lung
PC-3 prostate = tested on: PC-3 prostate
OVCAR-8 ovarian = tested on: OVCAR-8 ovarian
HS 578T breast = tested on: HS 578T breast
K-562 leukemia = tested on: K-562 leukemia
OVCAR-5 ovarian = tested on: OVCAR-5 ovarian
CCRF-CEM leukemia = tested on: CCRF-CEM leukemia
HCC-2998 colon = tested on: HCC-2998 colon
SF-268 CNS = tested on: SF-268 CNS
OVCAR-3 ovarian = tested on: OVCAR-3 ovarian
NCI/ADR-RES ovarian = tested on: NCI/ADR-RES ovarian
EKVX NSCLC = tested on: EKVX NSCLC
MDA-N = tested on: MDA-N
M14 melanoma = tested on: M14 melanoma
UACC-257 melanoma = tested on: UACC-257 melanoma
UACC-62 melanoma = tested on: UACC-62 melanoma
HT29 colon = tested on: HT29 colon
RXF 393 renal = tested on: RXF 393 renal
MCF7 breast = tested on: MCF7 breast
SK-MEL-28 melanoma = tested on: SK-MEL-28 melanoma
COLO 205 colon = tested on: COLO 205 colon
SK-OV-3 ovarian = tested on: SK-OV-3 ovarian
BT-549 breast = tested on: BT-549 breast
RPMI-8226 leukemia = tested on: RPMI-8226 leukemia
UO-31 renal = tested on: UO-31 renal
HL-60(TB) leukemia = tested on: HL-60(TB) leukemia
OVCAR-4 ovarian = tested on: OVCAR-4 ovarian

Measured: TGI

O=C1c2ccc3c4ccc5c6c(ccc(c7ccc(c2c37)C(=O)N1CCN1CCCCC1)c64)C(=O)N(CCN1CCCCC1)C5=O
> 100 µM: all assays above
